Reference: US9386767B2, “Derivatives of dillapiol and related monolignans and use thereof” (UNIVERSITY OF OTTAWA, priority 2011, dated 2016)
Where “and” joins values, the source holds several entries; their conditions need not be identical. Identical values can stand only once. Like-named read-outs stand apart in the source and are kept apart here.

Key:
[1] = target: T1, CYP3A4 (BDGentest) (Homo sapiens, UniProt P08684); assay: New CYP3A4 bioassay with dibenzylfluorescein (DBF) substrate (Foster et al. 2011); type: biochemical; conditions: for IC50: human microsomes; for % Activity relative to dillapiol = 1: new CYP3A4 bioassay, inhibition relative to dillapiol
T1 construct: purchased BDGentest
Procedure: (§1) In the second set of experiments, new CYP3A4 enzyme inhibition assays were conducted with a designed set of analogs and newer method described by Foster et al. (J. Agric. Food Chem, 2011, 59(9):5159-5163). This assay using the substrate dibenzylfluorescein (DBF) is considered more representative of CYP3A4 activity as compared to the benzyloxyresorufin assay previously used (Budzinski et al., 2000, Phytomedicine, 7(4):273-282).
Aliquots (10 μL) of stock solutions of the undiluted products were screened for their ability to inhibit CYP3A4 (BDGentest) metabolism of the non-fluorescent dibenzylfluorescein (DBF) substrates to the fluorescent metabolite using an in vitro fluorometric microtiter plate assay (CytoFluor Series 4000 multi-well plate reader). Briefly, assays were performed with 10 μL of product in clear-bottom, opaque-welled microtiter plates (96 well, Corning Costar). Control and control blank wells contained 5% ethanol, and test and test blank wells contained the product. All wells tested contained distilled water, β-nicotinamide adenine dinucleotide phosphate, reduced form (NADPH, Sigma Chemicals), and the enzyme substrate DBF (final concentration of 1 μM/well), for a total reaction volume of 200 μL. Control and test wells also contained live isozyme, within human microsomes, in phosphate buffer solution (PBS; 0.5 M, pH 7.4), and control blank and test blank wells contained denatured isoenzyme in PBS. Fluorescence was measured at 485 nm excitation and 530 nm emission, with a gain of 50.

[2] = target: human cytochrome CYP3A4 (Homo sapiens, UniProt P08684); assay: CYP3A4 inhibition assay of dillapiol derivatives (earlier benzyloxyresorufin assay); type: biochemical; conditions: for Rel. Activity Dillapiol = 1.0: CYP3A4 inhibition relative to dillapiol
Procedure: A suite of dillapiol derivatives were synthesized and assayed for their capacity to inhibit human cytochrome CYP3A4. For each molecule, experimental IC50 values for CYP3A4 inhibition were determined. These IC50 values together with the log of the octanol-water partition coefficient (logP) and molecular refractivity (MR) are shown in Table 1, and were used as parameters to model a quantitative structure-activity relationship (QSAR). The resulting equations were used to guide the design of further derivatives with enhanced CYP3A4 inhibition.
as §1

[3] = DBF substrate 1 μM, read-out: IC50 (converted)
[4] = Table 1, CYP3A4 inhibition, read-out: IC50

T1 sequence (P08684 whole entry): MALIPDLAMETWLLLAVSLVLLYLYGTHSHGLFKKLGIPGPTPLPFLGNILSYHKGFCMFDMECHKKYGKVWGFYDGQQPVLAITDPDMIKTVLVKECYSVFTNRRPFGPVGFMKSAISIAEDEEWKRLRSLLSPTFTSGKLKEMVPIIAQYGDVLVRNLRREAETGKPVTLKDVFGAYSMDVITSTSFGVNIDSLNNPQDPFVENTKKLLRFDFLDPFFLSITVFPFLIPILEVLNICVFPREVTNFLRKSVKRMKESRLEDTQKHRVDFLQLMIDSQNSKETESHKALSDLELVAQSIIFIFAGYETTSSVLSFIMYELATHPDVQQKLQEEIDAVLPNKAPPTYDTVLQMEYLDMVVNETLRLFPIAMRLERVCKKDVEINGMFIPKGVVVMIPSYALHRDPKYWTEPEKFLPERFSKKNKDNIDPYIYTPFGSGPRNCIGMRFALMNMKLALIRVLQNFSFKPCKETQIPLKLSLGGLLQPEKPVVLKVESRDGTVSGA
human cytochrome CYP3A4, sequence (P08684 whole entry): as above

SMILES	IC50 [1, 3]	% Activity relative to dillapiol = 1 [1]	further results
COc1c(CCCOC(=O)c2ccc(Cl)cc2Cl)cc2c(c1OC)OCO2	1.4 µM and 1.43 µM	6.56	–
COc1c(CCCOC(=O)c2ccc3c(c2)OCO3)cc2c(c1OC)OCO2	2.63 µM	3.49	–
CCCCCC(=O)OCCCc1cc2c(c(OC)c1OC)OCO2	3.25 µM	2.82	–
COc1c(CCCOCc2ccccc2)cc2c(c1OC)OCO2	6.66 µM	1.38	–
COc1c(CCCOC(=O)CCCc2ccccc2)cc2c(c1OC)OCO2	4.14 µM	2.22	–
COc1c(CCCOCc2ccc(F)cc2)cc2c(c1OC)OCO2	10.3 µM	0.89	–
COc1c(CCCOC(=O)c2ccc(Cl)cc2)cc2c(c1OC)OCO2	1.56 µM	5.89	–
COc1c(CCCOC(=O)/C=C/c2ccccc2)cc2c(c1OC)OCO2	2.38 µM	3.86	–
C/C=C(\C)C(=O)OCCCc1cc2c(c(OC)c1OC)OCO2	1.55 µM	5.9	–
COc1c(CCCOC(C)=O)cc2c(c1OC)OCO2	9.22 µM and 9.21 µM	1	–
COc1c(CCCOC(=O)c2ccccc2Cl)cc2c(c1OC)OCO2	5.27 µM	1.75	–
COc1cc2c(cc1CCCOC(=O)/C=C/c1ccccc1)OCO2	4.73 µM	1.94	–
C=CCc1cc2c(cc1OCc1cc(OC)ccc1OC)OCO2	2.15 µM	4.27	–
C=CCc1cc2c(cc1OCc1ccccc1)OCO2	1.44 µM and 1.43 µM	6.37	–
CCCc1cc2c(cc1OC)OCO2	–	–	IC50 ([1]; IC50, DBF substrate 1 μM): > 26 µM
O=C(/C=C/c1ccccc1)OCCCc1cc2c(cc1OCc1ccccc1)OCO2	8 µM and 7.92 µM	1.125	–
COc1c(CCCOC(=O)c2ccc([N+](=O)[O-])cc2)cc2c(c1OC)OCO2	> 13 µM	–	–
COc1c(CCCOC(=O)C(C)(C)C)cc2c(c1OC)OCO2	2.78 µM and 2.77 µM	3.3	–
COc1c(CCCOC(=O)C2CCCCC2)cc2c(c1OC)OCO2	1.9 µM	4.83	–
OCCCc1cc2c(cc1OCc1ccccc1)OCO2	3 µM	3	–
COc1cc2c(cc1CCCO)OCO2	4.05 µM and 4.04 µM	2.25	–
COc1c(CCCOC(=O)Cc2ccccc2)cc2c(c1OC)OCO2	–	4.83	IC50 ([1]; IC50, DBF substrate 1 μM): 1.9 µM
O=C(CCCC/C=C/c1ccc2c(c1)OCO2)OCCCO	4.1 µM and 4.08 µM	2.2	–

SMILES	IC50 [1, 3]	% Activity relative to dillapiol = 1 [1]	further results
OCCCCc1ccc2c(c1)OCO2	> 26 µM	–	–
COc1c(CCCC(O)(c2ccccc2)c2ccccc2)cc2c(c1OC)OCO2	1.06 µM	8.7	–
COc1c(CC/C=C/C(=O)NC(C)C)cc2c(c1OC)OCO2	2.1 µM	4.37	–
C=CCc1cc2c(cc1OC)OCO2	–	–	IC50 ([1]; IC50, DBF substrate 1 μM): > 26 µM
COc1c(CCCC(c2ccccc2)c2ccccc2)cc2c(c1OC)OCO2	> 20 µM	–	–
O=C(O)CCCC/C=C/c1ccc2c(c1)OCO2	> 20.1 µM	–	–
COc1c(CCC(C)O)cc2c(c1OC)OCO2 (stereo not drawn)	> 20 µM	–	–
COc1c(CCCCO)cc2c(c1OC)OCO2	11.6 µM	0.8	–
O=C(OCCCc1cc2c(cc1OCc1ccccc1)OCO2)c1ccccc1	3.9 µM and 3.84 µM	2.3	–
O=C(OCCCc1cc2c(cc1OCc1ccccc1)OCO2)c1ccc2c(c1)OCO2	1.4 µM and 1.38 µM	6.6	–
C=CCc1cc2c(c(C(O)CCCCCCCC)c1OC)OCO2 (single isomer, unassigned) [Compound 7]	–	–	Rel. Activity Dillapiol = 1.0 ([2]; Table 1): 2.2; IC50 [2, 4]: 190 µM
C=CCc1cc2c(c(C(O)CCCCCCCC)c1OC)OCO2 (stereo not drawn) [Compound 2]	–	–	CYP3A4 inhibition compared with dillapiol (in words) ([2]; Table 1): at least four times lower than dillapiol; Rel. Activity Dillapiol = 1.0 ([2]; Table 1): 15; IC50 [2, 4]: 26 µM
C=CCc1cc2c(c(OCCCCCCCC)c1OC)OCO2 [Compound 3]	–	–	Rel. Activity Dillapiol = 1.0 ([2]; Table 1): 1.3; IC50 [2, 4]: 320 µM
C=CCc1cc2c(c(CO)c1OC)OCO2 [Compound 4]	–	–	Rel. Activity Dillapiol = 1.0 ([2]; Table 1): 0.45; IC50 [2, 4]: 900 µM
C=CCc1cc2c(c(COC)c1OC)OCO2 [Compound 5]	–	–	Rel. Activity Dillapiol = 1.0 ([2]; Table 1): 1.3; IC50 [2, 4]: 320 µM
C=CCc1cc2c(c(/C=C/C(=O)OC)c1OC)OCO2 [Compound 6]	–	–	Rel. Activity Dillapiol = 1.0 ([2]; Table 1): 1.7; IC50 [2, 4]: 240 µM
C=CCc1cc2c(c(C=O)c1OC)OCO2 [Compound 8]	–	–	Rel. Activity Dillapiol = 1.0 ([2]; Table 1): 0.66; IC50 [2, 4]: 620 µM
C=CCc1cc2c(c(CC=C)c1OC)OCO2 [Compound 9]	–	–	IC50 [2]: 810 µM; Rel. Activity Dillapiol = 1.0 ([2]; Table 1): 2.0
C=CCc1cc2c(c(O)c1OC)OCO2 [Compound 10]	–	–	IC50 [2]: 1600 µM; Rel. Activity Dillapiol = 1.0 ([2]; Table 1): 0.26
C=CCc1cc2c(c(CC=C)c1O)OCO2 [Compound 11]	–	–	Rel. Activity Dillapiol = 1.0 ([2]; Table 1): 1.9; IC50 [2, 4]: 210 µM
C=CCc1cc2c(c(COCC(=O)OCC)c1OC)OCO2 [Compound 13]	–	–	CYP3A4 inhibition compared with dillapiol (in words) ([2]; Table 1): at least four times lower than dillapiol; Rel. Activity Dillapiol = 1.0 ([2]; Table 1): 4.2; IC50 [2, 4]: 98 µM
C=CCc1cc2c(cc1O)OCO2 [Compound 14]	–	–	Rel. Activity Dillapiol = 1.0 ([2]; Table 1): 0.75; IC50 [2, 4]: 550 µM
C=CCc1cc2c(c(S(C)(=O)=O)c1OC)OCO2 [Compound 15]	–	–	Rel. Activity Dillapiol = 1.0 ([2]; Table 1): 0.37; IC50 [2, 4]: 1100 µM

SMILES	IC50 [1, 3]	% Activity relative to dillapiol = 1 [1]	further results
C=CCc1cc2c(c(Sc3ccccc3)c1OC)OCO2 [Compound 16]	–	–	Rel. Activity Dillapiol = 1.0 ([2]; Table 1): 0.84; IC50 [2, 4]: 480 µM
C=CCc1cc2c(c(Br)c1O)OCO2 [Compound 17]	–	–	Rel. Activity Dillapiol = 1.0 ([2]; Table 1): 0.68; IC50 [2, 4]: 600 µM
C=CCc1cc2c(c(SC)c1OC)OCO2 [Compound 18]	–	–	IC50 [2]: 320 µM; Rel. Activity Dillapiol = 1.0 ([2]; Table 1): 1.3
C=CCc1cc2c(c(SC)c1O)OCO2 [Compound 19]	–	–	Rel. Activity Dillapiol = 1.0 ([2]; Table 1): 1.0; IC50 [2, 4]: 420 µM
C=CCc1cc2c(c(Sc3ccc(OC)cc3)c1OC)OCO2 [Compound 22]	–	–	Rel. Activity Dillapiol = 1.0 ([2]; Table 1): 0.67; IC50 [2, 4]: 660 µM
C=CCc1cc2c(c(S(=O)(=O)c3ccc(OC)cc3)c1O)OCO2 [Compound 23]	–	–	Rel. Activity Dillapiol = 1.0 ([2]; Table 1): 1.8; IC50 [2, 4]: 230 µM
COc1c(CCCOC(=O)C(c2ccccc2)c2ccccc2)cc2c(c1OC)OCO2 [Compound 48]	–	–	CYP3A4 inhibition (in words) [1]: potent inhibitor
COc1ccc(OC)c(COc2cc3c(cc2CCCOC(=O)c2ccccc2)OCO3)c1 [Compound 50]	–	–	CYP3A4 inhibition (in words) [1]: strong CYP3A4 inhibitors
COc1c(C/C=C/Cc2cc3c(c(OC)c2OC)OCO3)cc2c(c1OC)OCO2 [Compound 56]	1.8 µM	5.1	% Activity relative to dillapiol = 1 ([1]; listed as drawing 59): 5.1
OC(CCCC/C=C/c1ccc2c(c1)OCO2)(c1ccccc1)c1ccccc1 [Compound 59]	0.54 µM and 0.517 µM	17	–
COc1cc2c(cc1CCCOC(=O)C(c1ccccc1)c1ccccc1)OCO2 [Compound 61]	0.47 µM	19.5	CYP3A4 inhibition (in words) [1]: strong CYP3A4 inhibitors
COc1cc2c(cc1CCCOC(=O)c1ccccc1)OCO2 [Compound 63]	–	–	CYP3A4 inhibition (in words) [1]: strong CYP3A4 inhibitors
COc1ccc(OC)c(COc2cc3c(cc2CCCOC(=O)C(c2ccccc2)c2ccccc2)OCO3)c1 [Compound 69]	–	–	CYP3A4 inhibition (in words) [1]: strong CYP3A4 inhibitors
O=C(OCCCc1cc2c(cc1OCc1ccccc1)OCO2)C(c1ccccc1)c1ccccc1 [Compound 70]	–	4	CYP3A4 inhibition (in words) [1]: strong CYP3A4 inhibitors
C=CCc1cc2c(cc1O)OCO2 [drawing 54]	> 28.1 µM	–	–
COc1c(CCCOC(=O)C(c2ccccc2)c2ccccc2)cc2c(c1OC)OCO2 [drawing 58]	0.434 µM	21.15	–
COc1ccc(OC)c(COc2cc3c(cc2CCCOC(=O)c2ccccc2)OCO3)c1 [drawing 60]	0.36 µM and 0.355 µM	25.5	–
COc1c(C/C=C/Cc2cc3c(c(OC)c2OC)OCO3)cc2c(c1OC)OCO2 [drawing 66]	1.44 µM	6.3	–
COc1cc2c(cc1CCCOC(=O)c1ccccc1)OCO2 [drawing 73]	2.07 µM	4.4	–
COc1ccc(OC)c(COc2cc3c(cc2CCCOC(=O)C(c2ccccc2)c2ccccc2)OCO3)c1 [drawing 79]	0.23 µM	41	–
O=C(OCCCc1cc2c(cc1OCc1ccccc1)OCO2)C(c1ccccc1)c1ccccc1 [drawing 80]	0.62 µM and 0.624 µM	14	–
